According to the NIST ThermoML archive (doi:10.1021/je8007167):
Where “and” joins values, the source holds several entries; their conditions need not be identical. Identical values can stand only once.

Conditions: Crystal, Torsion effusion method

[Cl][Al]([Cl])[Cl] [aluminum chloride]
Conditions	vapor or sublimation pressure
321 K	0.00017 kPa
323 K	0.000234 kPa
327 K	0.00038 kPa
329 K	0.000525 kPa and 0.000513 kPa
330 K	0.00055 kPa
333 K	0.000676 kPa
334 K	0.000891 kPa
336 K	0.001023 kPa
338 K	0.001622 kPa
339 K	0.001622 kPa and 0.001585 kPa
340 K	0.002089 kPa and 0.001862 kPa
342 K	0.002455 kPa
343 K	0.002951 kPa
344 K	0.003388 kPa
345 K	0.003631 kPa and 0.003715 kPa
346 K	0.003981 kPa
347 K	0.004898 kPa and 0.004266 kPa
348 K	0.004786 kPa and 0.00537 kPa
349 K	0.00631 kPa
350 K	0.006761 kPa
351 K	0.006761 kPa and 0.006457 kPa
352 K	0.008318 kPa
353 K	0.008318 kPa and 0.008913 kPa
354 K	0.01072 kPa and 0.00912 kPa
355 K	0.01202 kPa and 0.01175 kPa
356 K	0.01175 kPa
358 K	0.01445 kPa and 0.01585 kPa
362 K	0.02399 kPa
363 K	0.0263 kPa
366 K	0.03715 kPa
368.5 K	0.04898 kPa
369 K	0.05129 kPa
372 K	0.06918 kPa
373 K	0.08511 kPa
376.5 K	0.1175 kPa
378 K	0.1288 kPa

[F][Al]([F])[F] [aluminum fluoride]
Conditions	vapor or sublimation pressure
956 K	0.000105 kPa
960 K	0.000132 kPa
968 K	0.000209 kPa
970 K	0.000209 kPa
974 K	0.000209 kPa
975 K	0.000209 kPa
977 K	0.000263 kPa
982 K	0.000316 kPa
985 K	0.000363 kPa
987 K	0.000363 kPa
991 K	0.000417 kPa and 0.000468 kPa
994 K	0.000468 kPa
998 K	0.000575 kPa
1001 K	0.000631 kPa
1002 K	0.000676 kPa
1007 K	0.000724 kPa
1010 K	0.000813 kPa
1013 K	0.000933 kPa
1014 K	0.000933 kPa
1018 K	0.001122 kPa
1022 K	0.001259 kPa
1023 K	0.001259 kPa
1026 K	0.001413 kPa
1029 K	0.001549 kPa
1033 K	0.00182 kPa
1036 K	0.001862 kPa
1040 K	0.002188 kPa
1043 K	0.002512 kPa
1048 K	0.002754 kPa
1052 K	0.003162 kPa and 0.003236 kPa
1053 K	0.003236 kPa
1059 K	0.00389 kPa
1062 K	0.004467 kPa
1063 K	0.004365 kPa
1066 K	0.005012 kPa
1070 K	0.00537 kPa
1071 K	0.005754 kPa
1074 K	0.00631 kPa
1078 K	0.006918 kPa
1083 K	0.008128 kPa and 0.008318 kPa
1086 K	0.008913 kPa
1089 K	0.009333 kPa
1093 K	0.01072 kPa
1097 K	0.0123 kPa
1098 K	0.01202 kPa
1100 K	0.01288 kPa
1104 K	0.01479 kPa
1107 K	0.01549 kPa
1109 K	0.01698 kPa
1112 K	0.0182 kPa
1113 K	0.01862 kPa
